The text below walks through data of publication PMC4583543, “Development and Validation of a Novel Leishmania donovani Screening Cascade for High-Throughput Screening Using a Novel Axenic Assay with High Predictivity of Leishmanicidal Intracellular Activity” (PLoS Neglected Tropical Diseases, 2015).

Experiment [1] relates to eGFP expressing LdBOB amastigote-like cells in PMA differentiated THP-1 cells. Description: Intramacrophage (intracellular, INMAC) assay. The format is cell-based, Leishmania donovani. The conditions noted are these: Leishmania donovani, THP-1; DOS library compounds, dose response; read-out: INMAC (intracellular) pEC50 (converted). How it is done:
(§1) Compounds were dispensed into 384-well assay plates by acoustic dispensing (LabCyte ECHO). […] Potencies are reported as pEC50 (-LOG(EC50[M])).
(§2) All data was processed using IDBS ActivityBase. […] Potency plates were normalised to DMSO control (0% effect) and 2μM amphotericin B control (100% effect). […] For compounds with low activity and poor definition of the curve top, B was fixed to 100. For the determination of the reference compound panel potency, all experiments were carried out with a minimum of three independent repeats.
(§3) The assay conditions are described previously. Briefly PMA differentiated THP-1 cells were infected overnight with eGFP expressing LdBOB amastigote-like cells at a multiplicity of infection of 5. Next, any remaining free amastigote-like cells are removed and compounds are added. The microscopy-based read-out is done after a four day compound incubation.

For experiment [2], the system named is LdBOB axenic amastigote-like cells. The experiment is described as follows: Novel (cidal) axenic amastigote assay, BacTiter-Glo read-out. Type of experiment: cell-based, Leishmania donovani. The conditions noted are these: for EC50: Leishmania donovani, DOS library compounds, ten-point dose response, read-out: cAX pEC50 (converted); for activity in the initial HTS assay: single concentration screen at 25 μM. An excerpt:
Leishmania donovani BOB cells (LdBOB) used in this study are a cloned line from strain MHOM/SD/62/1S-CL2 [13]. Cultures were maintained as described previously. Compounds were dispensed into 384-well assay plates by acoustic dispensing (LabCyte ECHO). […] Potencies are reported as pEC50 (-LOG(EC50[M])). All data was processed using IDBS ActivityBase. […] For compounds with low activity and poor definition of the curve top, B was fixed to 100. For the determination of the reference compound panel potency, all experiments were carried out with a minimum of three independent repeats. Test compounds were pre-dispensed into white 384 well plates (Corning). For library screens one compound per well was tested at the indicated final concentration. […] DMSO, zero percent effect control: cells at starting concentration. The zero percent effect control wells are left empty during the course of the assay. […] The assay volume is 25 μl / well. […] Plates were then sealed with clear film and relative luminescence was detected using a plate reader (Victor 3) from Perkin Elmer or PHERAstar FS from BMG LABTECH, with 0.5 s detection time per well).

In another experiment the test system is THP-1 cells. The experiment is described as follows: THP-1 host cell toxicity in the intramacrophage assay. As to conditions: Homo sapiens, THP-1; DOS library compounds, dose response; read-out: THP1 pEC50 (converted). The format is cell-based, human. How it is done:
as §1, §2, §3

For `CCCNC(=O)N1[C@H](C#N)[C@H](c2ccc(C#Cc3cccc(F)c3)cc2)[C@@H]1CO` [BRD0645], the values for the EC50 (in experiment [1]; in experiment [2]; with THP-1 cells) were 3.98 µM, 0.794 µM and greater than 50.1 µM, respectively.

As for `CCCNC(=O)N1[C@H](C#N)[C@H](c2ccc(C#Cc3ccc(F)cc3)cc2)[C@@H]1CO` [BRD1184], the results for the EC50 (in experiment [1]; in experiment [2]; with THP-1 cells) were 2 µM, 0.631 µM and 15.8 µM, respectively.

In the case of `CCCNC(=O)N1[C@H](C#N)[C@@H](c2ccccc2-c2ccc(OC)cc2)[C@@H]1CO` [BRD2647 RRS stereoisomer], in experiment [1], the EC50 was 39.8 µM.

For `CCCNC(=O)N1[C@H](CO)[C@H](c2ccccc2-c2ccc(OC)cc2)[C@@H]1C#N` [BRD2647 SRR stereoisomer], the “activity in the initial HTS assay” value in experiment [2] is “inactive”.

With `CCCNC(=O)N1[C@H](CO)[C@@H](c2ccccc2-c2ccc(OC)cc2)[C@@H]1C#N` [BRD2647 SSR stereoisomer], the “activity in the initial HTS assay” value in experiment [2] was “inactive”.

Turning to `CCCNC(=O)N1[C@H](C#N)[C@H](c2ccccc2-c2ccc(OC)cc2)[C@@H]1CO` [BRD2647], the figures for the EC50 (in experiment [1]; in experiment [2]; in the experiment on THP-1 cells) were 6.31 µM, 1.58 µM and greater than 50.1 µM, respectively.

`COc1ccc(-c2ccccc2[C@H]2[C@@H](C#N)N(C(=O)NC(C)C)[C@H]2CO)cc1` [BRD3029]: the EC50 in experiment [1] is 12.6 µM; in experiment [2], 1.58 µM; with THP-1 cells, greater than 50.1 µM.

For `CC(C)NC(=O)N1[C@H](C#N)[C@H](c2ccc(-c3ccc(F)cc3)cc2)[C@@H]1CO` [BRD3486], the EC50 is 6.31 µM in experiment [1], 2 µM in experiment [2] and 10 µM with THP-1 cells.

For `CCCNC(=O)N1[C@H](C#N)[C@H](c2ccccc2-c2ccc(C)cc2)[C@@H]1CO` [BRD4332], the EC50 is 6.31 µM in experiment [1], 0.631 µM in experiment [2] and greater than 50.1 µM with THP-1 cells.

Consider `CCCNC(=O)N1[C@H](C#N)[C@H](c2ccc(C3=CCCCC3)cc2)[C@@H]1CO` [BRD5744], for which the EC50 in experiment [1] is 2 µM; in experiment [2] it was 0.794 µM; in the experiment on THP-1 cells it was greater than 50.1 µM.

As to `CCCNC(=O)N1[C@@H](C#N)[C@@H](c2ccc(-c3cccc(OC)c3)cc2)[C@@H]1CO` [BRD6650 RRR stereoisomer], the EC50 in experiment [1] was 50.1 µM.

Turning to `CCCNC(=O)N1[C@H](C#N)[C@@H](c2ccc(-c3cccc(OC)c3)cc2)[C@@H]1CO` [BRD6650 RRS stereoisomer], the EC50 in experiment [1] was 15.8 µM.

Consider `CCCNC(=O)N1[C@H](CO)[C@H](c2ccc(-c3cccc(OC)c3)cc2)[C@@H]1C#N` [BRD6650 SRR stereoisomer], for which the EC50 in experiment [1] was 31.6 µM.

Take `CCCNC(=O)N1[C@H](C#N)[C@@H](c2ccc(-c3cccc(OC)c3)cc2)[C@H]1CO` [BRD6650 SRS stereoisomer]: the EC50 in experiment [1] was 20 µM.

On to `CCCNC(=O)N1[C@H](CO)[C@@H](c2ccc(-c3cccc(OC)c3)cc2)[C@@H]1C#N` [BRD6650 SSR stereoisomer], for which the EC50 in experiment [1] is 10 µM.

`CCCNC(=O)N1[C@H](C#N)[C@H](c2ccc(-c3cccc(OC)c3)cc2)[C@H]1CO` [BRD6650 SSS stereoisomer]: the EC50 in experiment [1] was 20 µM.

Take `CCCNC(=O)N1[C@H](C#N)[C@H](c2ccc(-c3cccc(OC)c3)cc2)[C@@H]1CO` [BRD6650]: the results for the EC50 (in experiment [1]; in experiment [2]; in the experiment with THP-1 cells) were 2 µM, 0.501 µM and greater than 50.1 µM, respectively.

As to `CCCNC(=O)N1[C@H](C#N)[C@H](c2ccc(-c3cccnc3)cc2)[C@@H]1CO` [BRD9157], the EC50 in experiment [1] was 1.58 µM; in experiment [2] it was 12.6 µM; in the experiment on THP-1 cells it was greater than 50.1 µM.

`COc1ccc(-c2ccccc2[C@H]2[C@@H](C#N)N(C(=O)NC3CCCC3)[C@H]2CO)cc1` [BRD9613]: the figures for the EC50 (in experiment [1]; in experiment [2]; in the experiment on THP-1 cells) were 10 µM, 1.58 µM and greater than 50.1 µM, respectively.
